Patent US10039715B2, “Liposomal formulation of nonglycosidic ceramides and uses thereof” (LUDWIG INSTITUTE FOR CANCER RESEARCH LTD., priority 2010, dated 2018)

How the values were obtained:
dendritic cell (DC) = test: DC maturation in vivo, CD86 and CD40 expression on spleen DC by flow cytometry; parameters: species or system mice; settings: median fluorescent intensity, spleen DC 18 hours after 1 μg intravenous injection
Experimental: (§1) This example illustrates the in vivo effect of threitolceramide-containing liposomes on dendritic cell (DC) maturation, as measured by CD86 and CD40 expression, and iNKT cell activation, as measured by IL-4 and IFNγ release.
(§2) WT (n=3) and CD1d^−/− (n=1) mice were administered 1 μg of liposomes (EPC:DDAB:TC(10); EPC:EPG:TC(2); EPC:EPG:TC(5); EPC:EPG:TC(10) and EPC:CHOL:TC(10)) or control liposome (EPC:EPG), soluble threitolceramide or soluble α-GalCer by intravenous injection.
18 hours post-injection, the spleens of the mice were harvested and the phenotype of DC maturation was examined by flow cytometry as determined by the median fluorescent intensity (MFI) of CD86 and CD40 expression.

iNKT cell = test: Activation of NKT cells in vivo, serum IL-4 and IFN-γ by ELISA; parameters: species or system mice; settings: 1 μg intravenous injection; for IL-4 (serum): 2 hours; for INFγ (serum): 18 hours
Experimental: as §1, §2
Serums were obtained by tail venipuncture 2 and 18 hours post-injection to detect IL-4 and IFN-γ levels by ELISA.

[1] = system: murine invariant natural killer cells (iNKT); test: Activation of iNKT cells in splenocyte culture, IFNγ ELISA; assay type: cell-based, mice; settings: splenocytes cultured 72 hours with material (titrating amounts 10 μg/ml, 1 μg/ml, 100 ng/ml; concentration of the tabulated values not stated), supernatant ELISA
Experimental: This Example illustrates ability of the threitolceramide-containing liposomes to activate murine invariant natural killer cells (iNKT) and human cells, as measured by IFNγ release.
Splenocytes were prepared from either wild type (WT) or CD1d^−/− (NKT cell deficient) mice and cultured in the presence of titrating amounts (10 μg/ml, 1 μg/ml, 100 ng/ml) of non-glycosidic ceramide containing liposomes (EPC:DDAB:TC(10); EPC:EPG:TC(2); EPC:EPG:TC(5); EPC:EPG:TC(10) and EPC:CHOL:TC(10)), control liposome (EPC:EPG), soluble threitolceramide or soluble α-GalCer for 72 hours. Soluble threitolceramide and soluble α-GalCer were prepared by dissolution in a chloroform/methanol/water solution (10:10:3) at 10 mg/mL. The resulting solution was diluted to a final volume of about 200 μg/mL using vehicle solution comprised of NaCl (about 150 mM) and polyoxyethylene (20) sorbitan monolaurate (i.e., Tween 20, 0.5%). Supernatants were removed from cultures and the amount of IFNγ produced by the cells was quantified by ELISA. Briefly, ELISA plates were coated with 1D1K antibody (Mabtech) and left overnight at 4° C. The plates were washed with 0.05% Tween 20 in PBS (v/v). To eliminate any non-specific antigen binding, the plates were coated (i.e. blocked) with 200 μL of 10% FCS in PBS (v/v) and incubated for 2 h at 37° C. […]

Structure (SMILES) | CD40 (DC maturation) Median (dendritic cell (DC)) | CD86 (DC maturation) Median (dendritic cell (DC)) | IL-4 (serum) (iNKT cell) [ng/mL] | INFγ (serum) (iNKT cell) [ng/mL] | IFNγ [1] [ng/mL]
CCCCCCCCCCCCCCCCCCCCCCCCCC(=O)N[C@@H](CO[C@H]1O[C@H](CO)[C@H](O)[C@H](O)[C@H]1O)[C@H](O)[C@H](O)CCCCCCCCCCCCCC [Soluble α-GalCer, α-Galactosylceramide] | 39.1 | 91.6 | 0.83 | 8.47 | 9.21
CCCCCCCCCCCCCCCCCCCCCCCCCC(=O)N[C@@H](COC[C@H](O)[C@@H](O)CO)[C@H](O)[C@H](O)CCCCCCCCCCCCCC [Soluble TC, threitolceramide] | 28.9 | 60.1 | 0.12 | 0.99 | 3.77
